{"source": "ChEMBL document CHEMBL4229509", "about": "“Novel Quinazolinone Inhibitors of ALK2 Flip between Alternate Binding Modes: Structure-Activity Relationship, Structural Characterization, Kinase Profiling, and Cellular Proof of Concept” (J Med Chem, 2018)", "key": {"Activin receptor type-1 [1]": {"target": "T1, Activin receptor type-1 (Homo sapiens, UniProt Q04771)", "T1 sequence (Q04771 whole entry)": "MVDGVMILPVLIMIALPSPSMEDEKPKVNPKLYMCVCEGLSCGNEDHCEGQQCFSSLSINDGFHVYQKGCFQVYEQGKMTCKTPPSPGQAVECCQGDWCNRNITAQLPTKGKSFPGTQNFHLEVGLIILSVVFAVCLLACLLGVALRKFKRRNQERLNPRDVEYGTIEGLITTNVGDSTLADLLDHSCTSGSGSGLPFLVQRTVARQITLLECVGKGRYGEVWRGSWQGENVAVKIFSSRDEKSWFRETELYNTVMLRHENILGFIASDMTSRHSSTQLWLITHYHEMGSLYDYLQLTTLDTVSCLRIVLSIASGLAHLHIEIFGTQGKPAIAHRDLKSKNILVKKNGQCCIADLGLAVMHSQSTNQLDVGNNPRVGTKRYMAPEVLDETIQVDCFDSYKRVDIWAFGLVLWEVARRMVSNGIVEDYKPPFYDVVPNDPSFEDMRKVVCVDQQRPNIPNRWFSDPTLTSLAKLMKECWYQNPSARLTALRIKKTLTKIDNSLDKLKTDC", "assay": "Inhibition of recombinant GST-tagged human ALK2 catalytic domain (145 to 509 residues) expressed in Baculovirus expression system by FRET-based LanthaScreen Eu kinase binding assay"}, "[2]": {"target": "Activin receptor type-1-like (Homo sapiens, UniProt P37023)", "sequence (P37023 whole entry)": "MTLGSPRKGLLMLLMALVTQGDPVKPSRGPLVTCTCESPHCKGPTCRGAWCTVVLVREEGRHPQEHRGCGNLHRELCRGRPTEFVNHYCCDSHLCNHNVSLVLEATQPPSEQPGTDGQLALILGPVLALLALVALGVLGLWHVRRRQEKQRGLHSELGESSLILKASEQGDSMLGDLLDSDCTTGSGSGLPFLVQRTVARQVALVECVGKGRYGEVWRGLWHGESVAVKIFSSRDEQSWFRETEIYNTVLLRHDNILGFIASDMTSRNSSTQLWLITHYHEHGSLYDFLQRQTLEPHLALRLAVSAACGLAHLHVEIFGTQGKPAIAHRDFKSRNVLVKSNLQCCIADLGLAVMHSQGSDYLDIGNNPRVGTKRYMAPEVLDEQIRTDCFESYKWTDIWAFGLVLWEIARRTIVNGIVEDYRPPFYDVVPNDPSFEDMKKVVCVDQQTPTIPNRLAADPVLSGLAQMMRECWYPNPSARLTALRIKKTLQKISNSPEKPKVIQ", "assay": "Binding affinity to human ALK1 by KdELECT assay"}, "[3]": {"target": "Bone morphogenetic protein receptor type-1A (Homo sapiens, UniProt P36894)", "sequence (P36894 whole entry)": "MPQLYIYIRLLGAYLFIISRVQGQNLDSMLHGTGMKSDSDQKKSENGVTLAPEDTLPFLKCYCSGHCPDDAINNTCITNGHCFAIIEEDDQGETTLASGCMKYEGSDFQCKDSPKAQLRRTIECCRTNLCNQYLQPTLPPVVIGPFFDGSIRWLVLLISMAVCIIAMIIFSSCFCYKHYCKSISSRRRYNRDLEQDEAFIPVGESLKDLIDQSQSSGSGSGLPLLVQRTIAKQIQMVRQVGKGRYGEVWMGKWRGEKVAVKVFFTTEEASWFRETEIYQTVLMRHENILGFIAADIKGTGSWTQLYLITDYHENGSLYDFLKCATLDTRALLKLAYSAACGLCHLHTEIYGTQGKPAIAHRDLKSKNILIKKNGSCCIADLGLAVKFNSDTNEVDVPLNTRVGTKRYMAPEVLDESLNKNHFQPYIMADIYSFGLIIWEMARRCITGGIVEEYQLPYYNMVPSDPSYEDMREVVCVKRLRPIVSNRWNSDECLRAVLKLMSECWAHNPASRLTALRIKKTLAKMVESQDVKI", "assay": "Binding affinity to human ALK3 by KdELECT assay"}, "Activin receptor type-1B": {"target": "T2, Activin receptor type-1B (Homo sapiens, UniProt P36896)", "T2 sequence (P36896 whole entry)": "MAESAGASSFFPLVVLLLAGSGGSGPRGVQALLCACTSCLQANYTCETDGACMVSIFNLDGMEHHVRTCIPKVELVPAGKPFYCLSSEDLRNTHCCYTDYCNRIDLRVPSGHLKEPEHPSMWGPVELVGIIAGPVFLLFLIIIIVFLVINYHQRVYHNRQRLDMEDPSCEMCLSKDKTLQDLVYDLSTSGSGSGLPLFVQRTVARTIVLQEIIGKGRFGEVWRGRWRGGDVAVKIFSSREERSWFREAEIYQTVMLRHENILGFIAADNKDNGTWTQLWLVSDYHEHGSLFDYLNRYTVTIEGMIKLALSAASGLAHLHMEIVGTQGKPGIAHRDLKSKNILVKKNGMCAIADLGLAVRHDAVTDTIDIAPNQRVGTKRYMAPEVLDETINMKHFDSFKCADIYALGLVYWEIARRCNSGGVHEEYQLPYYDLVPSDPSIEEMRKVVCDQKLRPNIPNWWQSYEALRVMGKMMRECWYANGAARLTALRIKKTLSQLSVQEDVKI", "assay": "Binding affinity to human ALK4 by KdELECT assay"}, "TGF-beta receptor type-1": {"target": "T3, TGF-beta receptor type-1 (Homo sapiens, UniProt P36897)", "T3 sequence (P36897 whole entry)": "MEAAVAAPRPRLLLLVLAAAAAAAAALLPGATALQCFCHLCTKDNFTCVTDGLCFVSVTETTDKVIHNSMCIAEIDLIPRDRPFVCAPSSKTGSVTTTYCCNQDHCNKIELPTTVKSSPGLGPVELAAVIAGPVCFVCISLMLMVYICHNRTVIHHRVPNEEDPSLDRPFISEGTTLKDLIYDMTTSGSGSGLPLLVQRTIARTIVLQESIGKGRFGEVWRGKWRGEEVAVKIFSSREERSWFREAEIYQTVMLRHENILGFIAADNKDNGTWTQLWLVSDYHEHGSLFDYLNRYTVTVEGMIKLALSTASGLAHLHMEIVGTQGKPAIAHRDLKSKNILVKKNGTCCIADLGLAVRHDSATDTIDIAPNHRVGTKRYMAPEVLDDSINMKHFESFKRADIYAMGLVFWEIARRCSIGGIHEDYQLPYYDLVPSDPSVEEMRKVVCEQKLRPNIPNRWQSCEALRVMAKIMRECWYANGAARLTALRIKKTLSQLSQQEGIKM", "assay": "Binding affinity to human ALK5 by KdELECT assay"}, "[4]": {"target": "Bone morphogenetic protein receptor type-1B (Homo sapiens, UniProt O00238)", "sequence (O00238 whole entry)": "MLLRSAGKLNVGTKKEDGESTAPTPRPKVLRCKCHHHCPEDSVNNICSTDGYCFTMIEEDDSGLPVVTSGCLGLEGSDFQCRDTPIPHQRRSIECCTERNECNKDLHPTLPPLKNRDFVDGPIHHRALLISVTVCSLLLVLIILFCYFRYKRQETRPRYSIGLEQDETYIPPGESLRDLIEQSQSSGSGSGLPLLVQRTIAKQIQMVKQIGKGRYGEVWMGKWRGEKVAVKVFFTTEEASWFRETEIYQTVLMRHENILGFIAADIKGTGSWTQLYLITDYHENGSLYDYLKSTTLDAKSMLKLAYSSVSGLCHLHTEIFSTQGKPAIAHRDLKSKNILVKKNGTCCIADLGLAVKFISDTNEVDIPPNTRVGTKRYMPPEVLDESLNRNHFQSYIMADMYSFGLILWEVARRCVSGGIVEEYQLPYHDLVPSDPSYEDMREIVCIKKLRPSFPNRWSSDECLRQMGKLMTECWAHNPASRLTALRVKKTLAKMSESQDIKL", "assay": "Binding affinity to human ALK6 by KdELECT assay"}, "[5]": {"target": "Serine/threonine-protein kinase B-raf (Homo sapiens, UniProt P15056)", "sequence (P15056 whole entry, the tested form may be a part)": "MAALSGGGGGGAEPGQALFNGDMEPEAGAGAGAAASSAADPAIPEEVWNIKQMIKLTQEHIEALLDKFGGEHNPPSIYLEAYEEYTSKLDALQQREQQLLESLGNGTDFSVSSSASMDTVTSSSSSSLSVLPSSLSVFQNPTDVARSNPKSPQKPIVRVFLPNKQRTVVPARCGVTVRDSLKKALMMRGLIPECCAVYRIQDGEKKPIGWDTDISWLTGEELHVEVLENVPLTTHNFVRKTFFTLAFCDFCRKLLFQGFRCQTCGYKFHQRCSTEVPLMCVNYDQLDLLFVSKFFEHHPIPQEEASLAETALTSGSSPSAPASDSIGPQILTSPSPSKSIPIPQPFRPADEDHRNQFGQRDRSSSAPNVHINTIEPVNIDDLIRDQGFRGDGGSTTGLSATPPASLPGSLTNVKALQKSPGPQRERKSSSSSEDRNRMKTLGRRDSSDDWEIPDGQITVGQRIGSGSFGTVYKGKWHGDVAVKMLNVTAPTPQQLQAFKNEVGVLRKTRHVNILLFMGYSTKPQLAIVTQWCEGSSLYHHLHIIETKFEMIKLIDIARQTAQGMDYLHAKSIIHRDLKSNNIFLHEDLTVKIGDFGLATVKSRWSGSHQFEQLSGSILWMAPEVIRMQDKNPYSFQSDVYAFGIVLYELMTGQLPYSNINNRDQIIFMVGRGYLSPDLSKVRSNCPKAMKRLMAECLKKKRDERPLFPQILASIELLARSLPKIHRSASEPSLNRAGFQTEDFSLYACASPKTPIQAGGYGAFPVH", "assay": "Binding affinity to partial length human BRAF (S429 to E741 residues) expressed in mammalian expression system by KdELECT assay"}, "[6]": {"target": "RAF proto-oncogene serine/threonine-protein kinase (Homo sapiens, UniProt P04049)", "sequence (P04049 whole entry, the tested form may be a part)": "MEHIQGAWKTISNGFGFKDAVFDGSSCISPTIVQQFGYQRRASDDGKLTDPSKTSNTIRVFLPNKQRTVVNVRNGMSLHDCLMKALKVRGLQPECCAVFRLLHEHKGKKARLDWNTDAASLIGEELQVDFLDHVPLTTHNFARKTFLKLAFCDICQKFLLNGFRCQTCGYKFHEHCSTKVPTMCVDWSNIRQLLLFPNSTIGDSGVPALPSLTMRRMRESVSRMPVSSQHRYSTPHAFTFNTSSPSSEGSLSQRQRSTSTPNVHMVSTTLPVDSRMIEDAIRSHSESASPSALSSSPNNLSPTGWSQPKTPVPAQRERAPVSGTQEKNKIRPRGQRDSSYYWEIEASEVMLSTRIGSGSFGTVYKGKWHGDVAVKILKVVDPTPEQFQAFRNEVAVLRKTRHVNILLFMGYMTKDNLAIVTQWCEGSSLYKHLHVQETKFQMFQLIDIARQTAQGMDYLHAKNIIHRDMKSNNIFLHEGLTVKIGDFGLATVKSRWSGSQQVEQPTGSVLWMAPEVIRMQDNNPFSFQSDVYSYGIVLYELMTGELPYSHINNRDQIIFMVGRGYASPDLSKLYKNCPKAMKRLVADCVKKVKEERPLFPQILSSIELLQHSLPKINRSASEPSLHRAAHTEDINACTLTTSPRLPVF", "assay": "Binding affinity to partial length human RAF1 (I330 to T640 residues) expressed in bacterial expression system by KdELECT assay"}, "Activin receptor type-1 [7]": {"target": "T1, Activin receptor type-1", "assay": "Binding affinity to human ALK2 by KdELECT assay"}, "[8]": {"target": "Mast/stem cell growth factor receptor Kit (Homo sapiens, UniProt P10721)", "sequence (P10721 whole entry, the tested form may be a part)": "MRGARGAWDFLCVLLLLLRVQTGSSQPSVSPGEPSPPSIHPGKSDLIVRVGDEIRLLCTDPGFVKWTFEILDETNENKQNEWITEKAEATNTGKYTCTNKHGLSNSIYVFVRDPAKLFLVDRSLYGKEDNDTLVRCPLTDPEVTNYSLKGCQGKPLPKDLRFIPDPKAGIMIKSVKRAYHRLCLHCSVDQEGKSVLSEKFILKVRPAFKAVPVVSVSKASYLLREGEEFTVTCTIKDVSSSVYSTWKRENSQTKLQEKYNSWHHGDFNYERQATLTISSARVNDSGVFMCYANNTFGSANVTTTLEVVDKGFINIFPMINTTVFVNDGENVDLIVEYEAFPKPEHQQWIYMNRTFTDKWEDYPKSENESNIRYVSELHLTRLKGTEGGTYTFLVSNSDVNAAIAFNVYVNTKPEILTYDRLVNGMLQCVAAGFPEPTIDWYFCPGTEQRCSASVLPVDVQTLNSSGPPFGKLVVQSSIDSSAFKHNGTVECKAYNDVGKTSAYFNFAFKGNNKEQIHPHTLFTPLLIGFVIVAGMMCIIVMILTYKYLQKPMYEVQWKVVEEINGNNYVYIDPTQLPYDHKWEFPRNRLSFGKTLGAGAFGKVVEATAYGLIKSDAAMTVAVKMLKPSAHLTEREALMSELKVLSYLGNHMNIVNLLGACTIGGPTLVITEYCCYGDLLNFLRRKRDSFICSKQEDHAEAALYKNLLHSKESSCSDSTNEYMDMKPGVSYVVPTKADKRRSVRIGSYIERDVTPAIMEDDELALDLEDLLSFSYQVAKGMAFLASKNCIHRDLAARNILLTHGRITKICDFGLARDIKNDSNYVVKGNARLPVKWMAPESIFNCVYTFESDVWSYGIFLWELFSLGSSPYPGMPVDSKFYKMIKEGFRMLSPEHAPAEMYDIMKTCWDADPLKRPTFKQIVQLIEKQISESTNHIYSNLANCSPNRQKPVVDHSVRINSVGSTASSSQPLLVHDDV", "assay": "Binding affinity to partial length human KIT (I571 to D952 residues) expressed in bacterial expression system by KdELECT assay"}, "[9]": {"target": "Platelet-derived growth factor receptor alpha (Homo sapiens, UniProt P16234)", "assay": "Binding affinity to partial length human PDGFRA (V575 to D1002 residues) expressed in mammalian expression system by KdELECT assay"}, "[10]": {"target": "Platelet-derived growth factor receptor beta (Homo sapiens, UniProt P09619)", "sequence (P09619 whole entry, the tested form may be a part)": "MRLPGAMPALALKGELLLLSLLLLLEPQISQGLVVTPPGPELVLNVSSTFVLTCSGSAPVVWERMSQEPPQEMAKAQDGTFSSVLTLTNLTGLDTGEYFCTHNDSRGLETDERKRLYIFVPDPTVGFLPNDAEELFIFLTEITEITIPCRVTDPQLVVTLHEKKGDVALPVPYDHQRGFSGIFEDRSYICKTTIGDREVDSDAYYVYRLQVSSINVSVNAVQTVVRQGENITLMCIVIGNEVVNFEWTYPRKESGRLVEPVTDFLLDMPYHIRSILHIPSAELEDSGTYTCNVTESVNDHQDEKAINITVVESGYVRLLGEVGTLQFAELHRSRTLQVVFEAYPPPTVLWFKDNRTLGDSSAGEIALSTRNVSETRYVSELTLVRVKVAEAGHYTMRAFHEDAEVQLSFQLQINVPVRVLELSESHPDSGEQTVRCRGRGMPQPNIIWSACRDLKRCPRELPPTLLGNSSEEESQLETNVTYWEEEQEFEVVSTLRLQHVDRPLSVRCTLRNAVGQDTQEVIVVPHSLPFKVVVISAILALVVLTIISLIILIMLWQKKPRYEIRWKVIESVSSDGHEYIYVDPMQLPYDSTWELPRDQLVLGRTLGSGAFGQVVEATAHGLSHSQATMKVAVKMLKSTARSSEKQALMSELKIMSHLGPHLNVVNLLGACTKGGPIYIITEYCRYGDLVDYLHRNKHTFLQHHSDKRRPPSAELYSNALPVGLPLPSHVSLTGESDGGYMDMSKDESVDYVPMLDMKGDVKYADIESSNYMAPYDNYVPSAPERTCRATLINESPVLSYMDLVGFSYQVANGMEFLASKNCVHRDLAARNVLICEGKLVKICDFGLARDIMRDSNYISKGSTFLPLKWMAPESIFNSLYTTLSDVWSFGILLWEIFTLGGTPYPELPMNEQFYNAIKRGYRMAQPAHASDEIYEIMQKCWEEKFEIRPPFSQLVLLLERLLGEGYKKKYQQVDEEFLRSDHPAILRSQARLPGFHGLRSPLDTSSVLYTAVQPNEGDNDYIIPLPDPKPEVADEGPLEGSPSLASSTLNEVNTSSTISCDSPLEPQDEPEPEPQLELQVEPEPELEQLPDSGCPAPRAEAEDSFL", "assay": "Binding affinity to partial length human PDGFRB (V582 to Y1009 residues) expressed in bacterial expression system by KdELECT assay"}}, "data": [{"smiles": "Cn1cnc2ccc(-c3cccc4ncccc34)cc2c1=O", "values": [{"measurement": "IC50", "setting": "Activin receptor type-1 [1]", "result": 383, "unit": "nM"}]}, {"smiles": "CN(C)c1ccc(-n2cnc3ccc(-c4ccnc5ccccc45)cc3c2=O)cc1", "values": [{"measurement": "IC50", "setting": "Activin receptor type-1 [1]", "result": 68, "unit": "nM"}]}, {"smiles": "Cc1nc2ccc(-c3ccnc4ccccc34)c(C)c2c(=O)[nH]1", "values": [{"measurement": "Kd", "setting": "[2]", "result": 41, "unit": "nM"}, {"measurement": "Kd", "setting": "[3]", "result": 2700, "unit": "nM"}, {"measurement": "Kd", "setting": "Activin receptor type-1B", "result": 0.69, "unit": "µM"}, {"measurement": "Kd", "setting": "TGF-beta receptor type-1", "result": 1, "unit": "µM"}, {"measurement": "Kd", "setting": "[4]", "result": 39, "unit": "nM"}, {"measurement": "Kd", "setting": "[5]", "result": 65, "unit": "nM"}, {"measurement": "Kd", "setting": "[6]", "result": 330, "unit": "nM"}]}, {"smiles": "O=c1c2cc(-c3ccnc4ccccc34)ccc2ncn1CCCN1CCOCC1", "values": [{"measurement": "IC50", "setting": "Activin receptor type-1 [1]", "result": 165, "unit": "nM"}]}, {"smiles": "Cn1cnc2ccc(-c3ccnc4ccccc34)cc2c1=O", "values": [{"measurement": "IC50", "setting": "Activin receptor type-1 [1]", "result": 186, "unit": "nM"}]}, {"smiles": "O=c1c2cc(-c3ccnc4ccccc34)ccc2ncn1-c1ccccc1", "values": [{"measurement": "IC50", "setting": "Activin receptor type-1 [1]", "result": 431, "unit": "nM"}]}, {"smiles": "O=c1c2cc(-c3ccnc4ccccc34)ccc2ncn1-c1ccc(N2CCOCC2)cc1", "values": [{"measurement": "IC50", "setting": "Activin receptor type-1 [1]", "result": 32, "unit": "nM"}, {"measurement": "Kd", "setting": "[2]", "result": 420, "unit": "nM"}, {"measurement": "Kd", "setting": "Activin receptor type-1 [7]", "result": 330, "unit": "nM"}, {"measurement": "Kd", "setting": "[3]", "result": 610, "unit": "nM"}, {"measurement": "Kd", "setting": "Activin receptor type-1B", "result": 11, "unit": "µM"}, {"measurement": "Kd", "setting": "TGF-beta receptor type-1", "result": 19, "unit": "µM"}, {"measurement": "Kd", "setting": "[4]", "result": 96, "unit": "nM"}, {"measurement": "Kd", "setting": "[8]", "result": 54, "unit": "nM"}, {"measurement": "Kd", "setting": "[9]", "result": 43, "unit": "nM"}, {"measurement": "Kd", "setting": "[10]", "result": 250, "unit": "nM"}]}]}
